Assay results from US11400136B2, “Methods and compositions for treating a microbial infection” (priority 2017, dated 2022).
“Also recorded” adds a separate entry of the source. Like-named read-outs stand apart in the source and are kept apart here.

Legend:
S. pyogenes M1 [1] = assay type: cell-based, Streptococcus pyogenes; conditions: 1 h
S. pyogenes M1 [2] = assay type: cell-based, mouse
S. pyogenes M1 [3] = assay type: in vivo, mouse
S. pyogenes M1 [4] = assay type: in vivo, mouse; remark: listed apart in the source
[5] = test system: Streptococcus pneumoniae strain WU-2; test: S. pneumoniae lung infection; assay type: in vivo, mouse; conditions: RTX vs vehicle; P=0.13
[6] = test system: Pseudomonas aeruginosa strain PA01V; test: P. aeruginosa lung infection; assay type: in vivo, mouse; conditions: RTX vs vehicle
S. aureus USA300 = test: S. aureus (MRSA) lung infection / lethal pneumonia; assay type: in vivo, mouse
skin punch biopsies = test: CGRP release assay from skin explants; assay type: in vivo, mouse; conditions: RTX-treated vs vehicle; 7 h
Method: CGRP release assay from skin explants. Skin punch biopsies (12 mm) were collected from the uninfected or infected flank skin samples of euthanized mice, and rapidly transferred to 24-well plates containing 1 mL of DMEM. Explants were incubated at 32° C. with gentle shaking (150 rpm) for 30 min.

[7] = assay type: in vivo, mouse; conditions: RTX-treated vs vehicle; steady state
Method: Vital sign measurements. Heart rate, oxygen saturation and perfusion were measured under isoflurane anesthesia by Pulse Oximetry using the Kent Scientific PhysioSuite (Kent Scientific Corporation). For accuracy, measurements were performed three independent times on different days for the same mice, and values represent the average of three measurements. Pulse Oximetry could not be used on MRSA infected mice because they could not survive isoflurane anesthesia, and thus the measurements were only performed at steady state. Respiratory rates were determined by manually recording number of breaths per minute and averaged over three measurements. Core body temperature was measured using a rectal thermal probe (Bioseb).

Klebsiella pneumoniae = test: K. pneumoniae lung infection; assay type: in vivo, mouse; conditions: RTX vs vehicle
[8] = test system: TRPV1-positive nociceptors; test: Ablation of TRPV1+ nociceptors, quantification of DRG/vagal ganglia neurons; conditions: mouse, in vivo
neutrophils = test: Pulmonary intravital microscopy of neutrophils; assay type: in vivo, mouse; conditions: RTX
Method: Pulmonary intravital microscopy. […]. To visualize neutrophils and endothelium, 3.5 μg Alexa Fluor 594 conjugated anti-Ly6G antibody (clone 1A8, BioLegend) and 5 μg Alexa Fluor 647 conjugated anti-CD31 antibody (clone MEC13.3, BioLegend) were injected intravenously. Mice were placed on a heating pad maintained at 37° C. and connected to mechanical ventilation (Harvard Apparatus) after a tracheostomy is performed. Mice were kept in a right lateral decubitus position and their left lung was exposed after a thoracotomy and rib resection. A portion of the lung was immobilized via a gentle vacuum chamber with a glass slide fitted on top. A resonant-scanner confocal microscope (Leica SP8) equipped with a white light laser and three HyD spectral detectors and a 25×/0.9 water objective lens were used for intravital microscopy. Images were acquired every 10 s for a total of 10 min, three to five fields of view were observed. All videos and images were processed and analyzed using Leica software and Volocity software. For neutrophil behavior analysis, tethering was defined as rapid movement with blood flow and stop for less than 30 s. Adhesion was defined as neutrophils that remained stationary for 30 s or longer. Crawling was defined as polarized cells that maintained continuous contact with the endothelium while changing physical location for at least 30 s. Random neutrophils were tracked manually in 10-min videos by using Volocity software.

[9] = Heat sensitivity (hot plate and tail-flick assays); assay type: in vivo, mouse; conditions: RTX vs vehicle
Method: Behavior tests. For behavioral assays, observers were blinded to treatment group and genotype. To measure heat sensitivity, mice were placed on a hot plate set at 52° C. (IITC Life Science). Latency to hindpaw lifting/licking/flinching was recorded, and stopped at a maximum of 60 seconds. For tail-flick assay, mice were kept vertically in a relaxed fashion with their tail immersed in a temperature-controlled water bath maintained at 52° C. The latency to a tail flick was recorded, with maximum of 60 seconds.

NCCCC[C@H](NC(=O)[C@@H](Cc1cc(Br)c(O)c(Br)c1)NC(=O)N1CCC(N2Cc3ccccc3NC2=O)CC1)C(=O)N1CCN(c2ccncc2)CC1 [BIBN4096]
direct effects on S. pyogenes growth or viability (S. pyogenes M1 [1]): did not have direct effects | neutrophil killing of S. pyogenes suppressed by DRG neurons (S. pyogenes M1 [2]): enhances neutrophil killing of bacteria; also recorded: prevented the suppressive effects | abscess formation (S. pyogenes M1 [3]; mouse, in vivo, 30 mg/kg): significantly decreases abscess formation; also recorded: reduced abscesses | dermonecrotic lesion size (S. pyogenes M1 [3]; mouse, in vivo, ip, 30 mg/kg): significantly smaller lesion formation; also recorded: smaller dermonecrotic lesions | neutrophil (CD11b+Ly6G+) recruitment to infected area (S. pyogenes M1 [3]; treated 2 h after infection, 1 day after injection): increased the recruitment of neutrophils | bacterial load recovery, flank skin and spleen (S. pyogenes M1 [3]; treated 2 h after infection, 9 days after injection of bacteria): decreases flank skin and spleen bacterial burdens; also recorded: increased bacterial clearance in the skin

CC(C)Cc1ccc(C(C)C(=O)O)cc1 (centres unmarked) [Ibuprofen]
heat hyperalgesia (S. pyogenes M1 [4]; ibuprofen 50 mg/kg): had no effect | mechanical hyperalgesia (S. pyogenes M1 [4]; ibuprofen 50 mg/kg): had no effect

C=C(C)[C@]12C[C@@H](C)[C@@]34O[C@](Cc5ccccc5)(O[C@@H]1[C@@H]3C=C(COC(=O)Cc1ccc(O)c(OC)c1)C[C@]1(O)C(=O)C(C)=C[C@@H]41)O2 [RTX, Resiniferatoxin]
survival [5]: modest but non-significant protective effect | survival [6]: did not impact death | mice succumbed to / died from infection (S. aureus USA300; RTX-treated mice given GR1 or control IgG): 0% | lung bacterial burdens / clearance (S. aureus USA300; RTX-treated vs vehicle, 12 h): significantly improved; also recorded: reduced lung bacterial burdens | core body temperature (S. aureus USA300; RTX-treated vs vehicle, lethal MRSA): improved maintenance of core-body temperature | survival (S. aureus USA300; RTX-treated vs vehicle, lethal MRSA intra-tracheal): significantly improved survival; also recorded: the majority of RTX-treated mice survived | BALF total protein, TNF-α, IL-6 and CXCL-1 induction (S. aureus USA300; RTX, 6 h): faster kinetics in the induction | CD11b+Ly6G+ lung neutrophil recruitment (S. aureus USA300; RTX, 6 h and 12 h post-infection): striking increase | gram-positive bacterial colonies in lung (Brown and Brenn) (S. aureus USA300; RTX, 12 h and 24 h): few bacterial colonies | lung cellular immune influx (H&E) (S. aureus USA300; RTX, 12 h and 24 h post-infection): increased cellular immune influx | BALF TNF-α, IL-6 and CXCL-1 levels (S. aureus USA300; RTX, 12 h post-infection): markedly reduced | CGRP levels in BALF (S. aureus USA300; RTX, 12 h post-infection): significantly reduced | bacterial load recovery, sub-lethal dose (S. aureus USA300; RTX, S. aureus 2-4×10^7 CFU): enhanced protection | heat hyperalgesia (S. pyogenes M1 [4]; RTX-treated): abrogated | mechanical hyperalgesia (S. pyogenes M1 [4]; RTX-treated): abrogated | spontaneous pain behaviors (S. pyogenes M1 [4]; RTX-treated): abrogated | CGRP release in infected tissues (skin punch biopsies): lower CGRP release in infected tissues | oxygen saturation, heart rate, perfusion, respiratory rates [7]: did not differ | dermonecrosis (S. pyogenes M1 [3]; RTX 30, 70, 100 μg/kg s.c., infection 4 weeks later): significantly less dermonecrosis | S. pyogenes in lesions, quantitative cultures (S. pyogenes M1 [3]; RTX-treated vs vehicle): log-fold reductions of S. pyogenes | body weight regain (S. pyogenes M1 [3]; RTX-treated vs vehicle): regained body weight faster | skin abscess size (S. pyogenes M1 [3]; RTX-treated vs vehicle): resolved faster | monocytes, other myeloid cells, CD11b-CD45+ leukocytes (FACS) (S. pyogenes M1 [3]; RTX-treated vs vehicle, 1 day): not detected | skin histopathology (S. pyogenes M1 [3]; RTX-treated, day 3): containment of the bacterial infection within a circumscribed abscess containing polymorphonuclear leukocytes | S. pyogenes cultured from spleens (S. pyogenes M1 [3]; RTX-treated, day 9): did not yield detectable bacteria | survival (Klebsiella pneumoniae): did not impact death | TRPV1+ and CGRP+ neurons in DRG (and vagal/nodose ganglia) [8]: significant loss of CGRP+ nociceptive neurons; also recorded: led to loss of TRPV1+ and CGRP+ neurons; also recorded: loss of TRPV1+ and CGRP+ neurons in DRG and VG | neutrophil crawling distances (neutrophils): significantly increased crawling distances | neutrophil vascular crawling (neutrophils): a significant proportion of neutrophils demonstrated vascular crawling | neutrophils recruited to pulmonary capillaries (neutrophils; 4 h post-infection GFP-S. aureus): significantly more neutrophils | latency to noxious heat [9]: increased latency to noxious heat

CGRP8-37 (VTHRLAGLLSRSGGVVKNNFVPTNVGSKAF; Calcitonin gene-related peptide 1; UniProt P06881 90-119, looked up, fragment)
survival (S. aureus USA300; CGRP8-37 800 ng i.p. at -24, -2, 12, 24, 36, 48 h): improved survival | core body temperature maintenance (S. aureus USA300; CGRP8-37 800 ng i.p. before and after infection): improved | core body temperature (S. aureus USA300; CGRP8-37 7.5 μg i.p. after infection): significantly improved | survival (S. aureus USA300; CGRP8-37 7.5 μg i.p. at 4, 16, 24 h after infection): significantly improved survival | core-body temperature (S. aureus USA300; CGRP8-37 i.p. 12 hours prior and 12 hours after infection): maintenance of core-body temperature | survival (S. aureus USA300; CGRP8-37 i.p. 12 hours prior and 12 hours after infection, 10^7 CFU): significantly improved survival | direct effects on S. pyogenes growth or viability (S. pyogenes M1 [1]): did not have direct effects | neutrophil killing of S. pyogenes suppressed by DRG neurons (S. pyogenes M1 [2]): enhances neutrophil killing of bacteria; also recorded: prevented the suppressive effects
